The subject of this data set is Beagle dogs. In words: GLP 14-day intravenous toxicity study (CRM Study No. 501448): clinical signs and plasma histamine. It counts as in vivo, dog. The method, then:
Blood samples (approximately 1 mL) were collected from all animals on Days 1, 6 and 12 at predose, 5 and 15 minutes post injection. Blood samples were collected by venipuncture (jugular, saphenous and cephalic) into tubes containing EDTA. The samples were then centrifuged (within 30 minutes of collection) in a refrigerated centrifuge (ca. 4° C.) at 2700 rpm for 10 minutes. Plasma were separated into a second tube with the appropriate label and stored at −80° C. until analysis at CRM. Plasma samples were used for investigating histamine levels. Samples from animals dosed intravenously with Tat-NR2B9c were analyzed using a validated method.

Ends that are not written are not given here.

In the case of YGRKKRRQRRRKLSSIESDV [Tat-NR2B9c], for the setting “10 mg/kg daily i.v.”, the “Lethargy and unpalpable pulse as characterized by attending veterinarian” value was “severe hypotensive reaction”. In addition, the Clinical signs result (10 mg/kg daily i.v., 14 days, all animals) was “treatment-related clinical signs”. In addition, for the setting “any dose level”, the “Change of histamine levels during 14-day repeated dosing” value is “no consistent increase in histamine levels”. Besides, the Plasma histamine levels result (immediately following the first administration, naive dogs) is reported as “increased histamine levels”.

The values above are taken from US10046060B2, “Co-administration of an agent linked to an internalization peptide with an anti-inflammatory” (NoNO Inc., priority 2007, dated 2018).
